The values below come from patent US20140323500A1, “NADPH OXIDASE 4 INHIBITORS AND USE THEREOF” (GENKYOTEX SA, priority 2011, published 2014).

Each structure is given as a SMILES string. Read-outs that look alike come from different tables or passages of the source. Bounds are passed on as bounds.

Usually Ki stands for the equilibrium dissociation constant of an inhibitor or competing ligand from its target.

One assay addresses T1, human Nox2 (Homo sapiens, UniProt P04839).
T1 construct: host or cells: T-REx-CHO (hNOX2 T-REx-CHO), tetracycline-induced; membrane fraction
T1 sequence (P04839 2-570 limits assumed): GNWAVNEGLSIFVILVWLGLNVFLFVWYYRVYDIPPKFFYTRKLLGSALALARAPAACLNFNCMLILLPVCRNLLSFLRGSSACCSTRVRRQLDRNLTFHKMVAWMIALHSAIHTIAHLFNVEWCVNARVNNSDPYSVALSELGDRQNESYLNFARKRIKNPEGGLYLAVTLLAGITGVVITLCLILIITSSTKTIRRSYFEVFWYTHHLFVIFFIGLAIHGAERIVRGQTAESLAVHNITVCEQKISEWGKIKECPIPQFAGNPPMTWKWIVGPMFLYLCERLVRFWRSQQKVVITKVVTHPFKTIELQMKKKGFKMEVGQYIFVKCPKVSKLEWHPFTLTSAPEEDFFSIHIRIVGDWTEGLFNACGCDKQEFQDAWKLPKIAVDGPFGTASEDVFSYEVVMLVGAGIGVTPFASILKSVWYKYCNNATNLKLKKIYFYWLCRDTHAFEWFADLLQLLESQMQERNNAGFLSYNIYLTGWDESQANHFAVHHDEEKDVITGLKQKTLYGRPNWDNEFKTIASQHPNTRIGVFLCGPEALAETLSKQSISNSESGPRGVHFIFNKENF
T1 sequence (P13498 2-195 partner limits assumed): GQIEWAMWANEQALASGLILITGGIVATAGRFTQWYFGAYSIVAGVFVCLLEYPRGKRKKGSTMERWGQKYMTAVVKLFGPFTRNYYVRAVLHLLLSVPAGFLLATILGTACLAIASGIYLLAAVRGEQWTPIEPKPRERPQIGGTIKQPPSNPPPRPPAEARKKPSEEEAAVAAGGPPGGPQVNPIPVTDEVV
Put plainly: ROS production by membranes expressing human Nox2, cell-free Amplex Red assay. The assay is classed as biochemical. The note with it: read-out: Ki hNox2. The text has this:
The Nox4 activity of Nox4 inhibitors according to the invention may be tested for their activity in the inhibition or reduction of formation of reactive oxygen species (ROS) from oxygen in cell free assays. In order to fully characterise Nox4 inhibitors, Nox subunit-specific cell-free, membrane-based systems have been developed and specific recombinant proteins have been added to membranes heterologously over-expressing their specific iso form. Nox enzymes produce superoxide (O2.−) as primary product, however due to the high instability and reactivity of this molecule which dismutates naturally into hydrogen peroxide (H2O2), therefore, read-out techniques involving probes that do measure H2O2 were used (e.g. using Amplex Red as a probe in order to facilitate consistent and accurate measurements). The activity of the compounds is tested in the following cell free assay using the techniques described here below:
Human Nox1 (NM_007052.4), human NOX2 (NM_000397), and human NOX5 (NM_0245052244) cDNAs were cloned into the pcDNA5/TO (Invitrogen). Human p22 (NM_000101.2) was cloned into pcDNA3.1/Zeo (+) (Invitrogen), and human NOXA1 (AY255769.1) and human NOXO1 (AB097667) were cloned into the bi-cistronic pVITRO1-neo-mcs plasmid (Invivogen).
Cells were transfected by using the FuGENE 6 method. Cells stably expressing functional human Nox1 (hNOX1 T-REx™-CHO) were obtained by co-transfecting T-REx™-CHO cells with human Nox1, human p22, human NOXA1 and human NOXO1. Cells stably expressing functional human Nox2 (hNOX2 T-REx™-CHO) were obtained by co-transfecting T-REx™-CHO cells with human nox2, human p22 and human cofactors. Cells stably expressing functional human Nox5 (hNOX5 T-REx™-CHO) were obtained by transfecting T-REx™-CHO cells with human Nox5. Co-transfected cells were selected with the appropriate antibiotics for 10 days. For the selection, hygromycin and G418 were used at 2 mg/ml and zeocin at 0.1 mg/ml. For the establishment of each stably transfected cell line, a pool of antibiotic-resistant cells was generated. Cells were cloned by limiting dilution. Several clones were established and investigated for ROS production upon tetracycline-induced hNox expression using a cellular AR assay. The expression of NOXes was done with tetracycline (1 μg/ml) during 24 h prior to the assay.
Human Nox1, Nox2, Nox4, and Nox5 expression were induced with Tetracycline (1 μg/ml) during 24 h prior to the membrane preparation Membranes from transfected cells overexpressing Nox1, Nox2, Nox4 or Nox5 were prepared as previously described in Palicz et al., 2001, J. Biol. Chem., 76, 3090-3097. After resuspension in sonication buffer (11% sucrose, 120 mM NaCl, 1 mM EGTA in PBS, pH 7.4 for Nox4- or NOX5-expressing cells) or in relax buffer (10 mM Pipes, 3 mM NaCl, 3.5 mM MgCl2, 0.1M KCl, pH 7.4), cells were broken by sonication and centrifuged (200 g, 10 min). The supernatant was layered onto a 17/40% (w/v) discontinuous sucrose gradient and centrifuged (150,000×g for 60 min). Membrane fractions were collected from the 17/40% interface and were stored at −80° C. Protein concentration was determined with the Bradford reagent.
Reactive Oxygen Species (ROS) production by membranes expressing either human Nox1, or human Nox2 or human Nox4 or human Nox5 or by xanthine/xanthine oxidase were measured using the Amplex Red (AR) method following a slightly modified version of the manufacturer's instruction manual (Invitrogen). Briefly, membranes or xanthine were incubated in PBS with Amplex Red, Horse Radish Peroxidase (HRP) and appropriated co-factors. ROS production was induced by addition of NADPH to NOX-expressing membrane or by addition of xanthine to xanthine oxidase. Non-specific signal was measured in the absence of membranes or in the absence of xanthine.
Antagonist activity of compounds was measured in the presence of increasing concentrations ranging from 1 nM to 100 μM. […]

Another assay deals with T2, human Nox4 (Homo sapiens, UniProt Q9NPH5).
T2 construct: expressed in transfected cells; host or cells: T-REx-293 (hNOX4 T-REx-293), tetracycline-induced; membrane fraction
T2 sequence (Q9NPH5 1-578): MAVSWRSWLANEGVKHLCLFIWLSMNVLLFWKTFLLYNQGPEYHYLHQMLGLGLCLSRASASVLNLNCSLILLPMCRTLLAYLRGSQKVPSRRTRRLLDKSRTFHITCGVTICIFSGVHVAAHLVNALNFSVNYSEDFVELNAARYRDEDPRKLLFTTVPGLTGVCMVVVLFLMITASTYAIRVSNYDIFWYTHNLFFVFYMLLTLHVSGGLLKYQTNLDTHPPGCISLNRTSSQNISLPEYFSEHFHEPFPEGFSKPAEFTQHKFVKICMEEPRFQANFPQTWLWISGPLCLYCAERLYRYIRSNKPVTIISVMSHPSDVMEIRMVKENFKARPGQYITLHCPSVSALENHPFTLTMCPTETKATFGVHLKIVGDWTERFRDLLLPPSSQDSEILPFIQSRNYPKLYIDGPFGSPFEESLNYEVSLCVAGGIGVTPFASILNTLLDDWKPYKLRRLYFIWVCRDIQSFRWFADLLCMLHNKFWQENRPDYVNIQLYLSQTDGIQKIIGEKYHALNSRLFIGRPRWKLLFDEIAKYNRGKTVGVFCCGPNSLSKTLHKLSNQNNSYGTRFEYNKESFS
T2 sequence (P13498 2-195 partner limits assumed): T1 sequence (P13498 2-195 partner limits assumed)
In words: ROS production by membranes expressing human Nox4, cell-free Amplex Red assay. It is filed as biochemical. The note with it: read-out: Ki hNox4. Put shortly:
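Membranes from tetracycline-induced (1 μg/ml, 24 h) T-REx cells overexpressing human Nox4, incubated in PBS with Amplex Red, HRP and co-factors; NADPH starts ROS production. Compounds 1 nM-100 μM, 20 min at 37° C.; fluorescence (ex 544/em 590 nm) over 10 min; Ki via Cheng-Prusoff, ≥3 experiments in triplicate.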

The subject of assay [1] is female mice subjected to ovariectomy. Put plainly: Ovariectomy-induced osteoporosis (bone loss) in mice. The assay is classed as in vivo. The note with it: distal femur 6 weeks after ovariectomy, compound 1 at 20 and 60 mg/kg, pamidronat 10 mg/kg once a week, microCT. Here is the method: BMD of the left femur was measured by peripheral quantitative computed tomography (QCT) using an XCT Research QCT machine (Stratec Medizintechnik, Pforzheim, Germany). One slice (0.2 mm thick) in the mid-diaphysis of the femur and 3 slices in the distal femoral metaphysis located 1.5, 2, and 2.5 mm proximal to the articular surface of the knee joint were measured. BMD values of the distal femoral metaphysic were calculated as the mean of 3 slices. A voxel size of 0.070 mm and a threshold of 710 mg/cm^3 were used for calculation of BMD as described in Hofbauer et al., 2009, Arthritis Rheum., 60(5):1427-1437.
The control group received daily gavages by the solvent.
To study the latter effect, female mice were subjected to ovariectomy to induce osteoporosis and the effect of pharmacological inhibition of Nox4 with a Nox4 inhibitor as well as acute genetic knockout of the protein was studied. For this, mice were subjected to ovariectomy 8 weeks after birth and treatment at 60 mg/kg with a Nox4 inhibitor of the invention was started 2 days after the operation and continued throughout the study (6 weeks).
3, Hamburg was used which completely blocks osteoclast activity. […] For this, bones were scanned with a skyscan 1176 and bone density was analysed with the integrated software using two phantoms with 0.25 g/cm^3 and 0.75 g/cm^3 as reference. A 2 mm portion of the femur from the tibia plateau was analysed for total and trabecular bone density by the software provided by the manufacturer of the machine. […] For this method, the femurs were loaded to failure by 3-point bending tests using a Zwick Z020/TN2A materials testing machine (Zwick, Ulm, Germany) with a 1 kN force detector, and a force resolution of 0.01N. The distance between the lower supports for the bending tests was 5 mm. Crosshead speed during testing was 0.2 mm/minute for all measurements. From the force-displacement data, ultimate force (Fmax; in N) was calculated.

Where [2] appears, read: cell-free membranes, Amplex Red, Cheng-Prusoff, average of at least three experiments in triplicate.

Take `CNc1cccc(-c2c3c(=O)n(-c4ccccc4Cl)[nH]c3cc(=O)n2C)c1` [(32), 2-(2-chlorophenyl)-5-methyl-4-[3-(methylamino)phenyl]-1H-pyrazolo[4,3-c]pyridine-3,6(2H,5H)-dione]: the Ki was 1830 nM at human Nox2 (setting [2]) and 114 nM at human Nox4 (setting [2]).
The corresponding values for `O=c1c2c(-c3ccccc3F)n(Cc3ccccn3)c(=O)cc2[nH]n1-c1ccccc1Cl` [(34), 2-(2-chlorophenyl)-4-(2-fluorophenyl)-5-(pyridin-2-ylmethyl)-1H-pyrazolo[4,3-c]pyridine-3,6(2H,5H)-dione] are 640 nM and 119 nM.
The corresponding values for `O=c1c2c(-c3cc(F)ccc3F)n(Cc3ccncc3)c(=O)cc2[nH]n1-c1ccccc1Cl` [(35), 2-(2-chlorophenyl)-4-(2,5-difluorophenyl)-5-(pyridin-4-ylmethyl)-1H-pyrazolo[4,3-c]pyridine-3,6(2H,5H)-dione] are 665 nM and 119 nM.
For `O=c1c2c(-c3ccc(Cl)cc3)n(Cc3nccs3)c(=O)cc2[nH]n1-c1ccccc1Cl` [(36), 2-(2-chlorophenyl)-4-(4-chlorophenyl)-5-(1,3-thiazol-2-ylmethyl)-1H-pyrazolo[4,3-c]pyridine-3,6(2H,5H)-dione] the same measures were 1160 nM and 125 nM.
Consider `O=c1c2c(-c3cc(Cl)cc(Cl)c3)n(Cc3ccncc3)c(=O)cc2[nH]n1-c1ccccc1Cl` [(37), 2-(2-chlorophenyl)-4-(3,5-dichlorophenyl)-5-(pyridin-4-ylmethyl)-1H-pyrazolo[4,3-c]pyridine-3,6(2H,5H)-dione], for which the Ki amounted to 950 nM at human Nox2 (setting [2]) and 128 nM at human Nox4 (setting [2]).
As for `CN(C)c1cccc(-c2c3c(=O)n(-c4ccccc4Cl)[nH]c3cc(=O)n2Cc2cccnc2)c1` [(39), 2-(2-chlorophenyl)-4-[3-(dimethylamino)phenyl]-5-(pyridin-3-ylmethyl)-1H-pyrazolo[4,3-c]pyridine-3,6(2H,5H)-dione], the Ki turned out to be 1500 nM on human Nox2 (setting [2]) and 149 nM on human Nox4 (setting [2]).
In the case of `O=c1c2c(-c3cc(F)ccc3F)n(Cc3cccnc3)c(=O)cc2[nH]n1-c1ccccc1Cl` [(42), 2-(2-chlorophenyl)-4-(2,5-difluorophenyl)-5-(pyridin-3-ylmethyl)-1H-pyrazolo[4,3-c]pyridine-3,6(2H,5H)-dione], the Ki at human Nox2 (setting [2]) came to 540 nM; on human Nox4 (setting [2]), 159 nM.
For `CCC(C)(C)C(=O)O[C@H]1C[C@@H](C)C=C2C=C[C@H](C)[C@H](CC[C@@H]3C[C@@H](O)CC(=O)O3)[C@H]21` [Simvastatin, reference compound], the Ki was more than 162000 nM at human Nox2 (Simvastatin comparison) and more than 133000 nM at human Nox4 (Simvastatin comparison).
As for `NCCC(O)(P(=O)(O)O)P(=O)(O)O` [pamidronat, reference compound], the “absolute bone density (total)” value in assay [1] (FIG. 6A) is “increased absolute bone density”. Besides, the “absolute trabecular bone density” value in assay [1] (FIG. 6B) is given as “increased”. Moreover, the “relative inhibition of ovarectomy-induced total bone loss” value in assay [1] (FIG. 6C) is listed as approximately 50%. In assay [1] (FIG. 6D), the “relative inhibition of trabecular bone loss” value is “approximately 60%”.
